Values quoted from earlier work in patent US20140004176A1, “DELIVERY OF TREATMENTS TRANSDERMALLY FOR FUNGAL INFECTIONS AND OTHER INDICATIONS” (Strategic Science & Techologies, priority 2010, published 2014).

In the case of `C[C@@H](c1ncncc1F)[C@](O)(Cn1cncn1)c1ccc(F)cc1F` [voriconazole], the pKa is given as 1.76.
